Results on twelve compounds are retold here after ChEMBL document CHEMBL3991601, “The target landscape of clinical kinase drugs” (Science, 2017).

Each structure is given as a SMILES string. The source made the active and inactive calls. Cut-off read from the data, not from the text of the source, for most assays here: actives have a measured Kd and inactives only a lower limit.

Assay [1] has as its target T1, DNA replication licensing factor MCM4 (Homo sapiens, UniProt P33991).
T1 sequence (P33991 whole entry): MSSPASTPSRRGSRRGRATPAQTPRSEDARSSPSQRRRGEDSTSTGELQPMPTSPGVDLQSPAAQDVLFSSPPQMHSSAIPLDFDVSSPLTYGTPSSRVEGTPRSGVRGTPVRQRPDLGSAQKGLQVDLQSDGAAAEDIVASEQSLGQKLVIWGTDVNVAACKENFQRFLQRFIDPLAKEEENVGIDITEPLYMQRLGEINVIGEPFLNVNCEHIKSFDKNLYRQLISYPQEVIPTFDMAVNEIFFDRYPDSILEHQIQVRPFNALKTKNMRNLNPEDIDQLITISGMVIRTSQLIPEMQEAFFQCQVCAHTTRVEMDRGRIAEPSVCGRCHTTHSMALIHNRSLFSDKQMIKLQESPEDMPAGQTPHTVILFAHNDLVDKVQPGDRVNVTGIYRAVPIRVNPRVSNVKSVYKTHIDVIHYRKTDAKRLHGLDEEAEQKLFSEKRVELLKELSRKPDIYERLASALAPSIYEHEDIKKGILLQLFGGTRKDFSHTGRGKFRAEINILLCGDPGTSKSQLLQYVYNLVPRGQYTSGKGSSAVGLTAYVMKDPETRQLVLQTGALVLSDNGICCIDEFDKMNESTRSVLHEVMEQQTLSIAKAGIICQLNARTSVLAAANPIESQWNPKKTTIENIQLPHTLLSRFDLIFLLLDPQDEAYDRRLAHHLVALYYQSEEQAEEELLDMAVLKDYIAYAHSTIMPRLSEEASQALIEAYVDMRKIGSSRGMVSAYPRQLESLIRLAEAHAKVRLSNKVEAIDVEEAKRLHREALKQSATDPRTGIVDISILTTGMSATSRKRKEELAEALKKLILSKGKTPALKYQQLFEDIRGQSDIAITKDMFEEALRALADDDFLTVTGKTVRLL

The target in assay [2] is Epithelial discoidin domain-containing receptor 1 (Homo sapiens, UniProt Q08345).
Epithelial discoidin domain-containing receptor 1, sequence (Q08345 whole entry, the tested form may be a part): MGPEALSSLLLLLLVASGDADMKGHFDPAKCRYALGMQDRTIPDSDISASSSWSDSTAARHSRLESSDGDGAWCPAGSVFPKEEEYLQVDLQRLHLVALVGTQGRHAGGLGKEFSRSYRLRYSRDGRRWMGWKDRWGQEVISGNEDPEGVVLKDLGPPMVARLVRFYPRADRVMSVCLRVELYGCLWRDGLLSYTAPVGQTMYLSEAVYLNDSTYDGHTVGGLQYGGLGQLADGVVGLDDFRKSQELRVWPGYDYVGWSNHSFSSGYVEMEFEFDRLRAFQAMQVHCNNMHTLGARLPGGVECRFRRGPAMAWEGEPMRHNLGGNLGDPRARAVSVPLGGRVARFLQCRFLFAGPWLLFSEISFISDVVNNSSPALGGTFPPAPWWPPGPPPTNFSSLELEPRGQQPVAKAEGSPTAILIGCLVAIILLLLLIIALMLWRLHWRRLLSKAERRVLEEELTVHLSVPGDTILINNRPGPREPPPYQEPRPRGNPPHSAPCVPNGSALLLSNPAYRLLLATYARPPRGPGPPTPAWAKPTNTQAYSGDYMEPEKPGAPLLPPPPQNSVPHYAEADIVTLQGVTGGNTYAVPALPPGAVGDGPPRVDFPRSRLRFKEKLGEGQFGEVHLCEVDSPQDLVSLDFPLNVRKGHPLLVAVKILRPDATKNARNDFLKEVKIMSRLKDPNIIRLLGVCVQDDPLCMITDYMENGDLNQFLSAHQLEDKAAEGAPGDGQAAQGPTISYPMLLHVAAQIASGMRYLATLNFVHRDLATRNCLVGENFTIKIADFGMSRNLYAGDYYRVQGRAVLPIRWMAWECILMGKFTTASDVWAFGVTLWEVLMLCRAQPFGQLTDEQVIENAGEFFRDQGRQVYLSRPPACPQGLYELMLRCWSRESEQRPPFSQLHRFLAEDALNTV
The target of assay [3] is T2, Activin receptor type-1 (Homo sapiens, UniProt Q04771).
T2 sequence (Q04771 whole entry): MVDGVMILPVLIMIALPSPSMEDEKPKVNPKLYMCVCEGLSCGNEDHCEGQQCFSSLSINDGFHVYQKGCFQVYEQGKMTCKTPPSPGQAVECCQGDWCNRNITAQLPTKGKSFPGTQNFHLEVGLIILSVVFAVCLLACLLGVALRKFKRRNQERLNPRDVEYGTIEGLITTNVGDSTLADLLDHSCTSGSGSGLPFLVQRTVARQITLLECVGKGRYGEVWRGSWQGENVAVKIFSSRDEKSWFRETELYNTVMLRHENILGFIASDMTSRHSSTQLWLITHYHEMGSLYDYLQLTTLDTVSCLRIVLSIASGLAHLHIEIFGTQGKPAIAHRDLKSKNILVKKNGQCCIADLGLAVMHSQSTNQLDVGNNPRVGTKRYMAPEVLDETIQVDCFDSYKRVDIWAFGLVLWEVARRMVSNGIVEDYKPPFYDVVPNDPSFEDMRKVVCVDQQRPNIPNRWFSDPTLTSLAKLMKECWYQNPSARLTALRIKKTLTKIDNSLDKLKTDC

The target of assay [4] is T3, dCTP pyrophosphatase 1 (Homo sapiens, UniProt Q9H773).
T3 sequence (Q9H773 whole entry): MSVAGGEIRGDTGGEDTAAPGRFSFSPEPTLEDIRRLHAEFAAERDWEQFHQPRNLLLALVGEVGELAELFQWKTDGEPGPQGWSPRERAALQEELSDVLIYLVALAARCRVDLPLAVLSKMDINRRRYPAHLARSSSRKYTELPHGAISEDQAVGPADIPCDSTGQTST

Assay [5] addresses 5'-AMP-activated protein kinase catalytic subunit alpha-1 (Homo sapiens, UniProt Q13131).
Assay [6] has as its target TGF-beta receptor type-2 (Homo sapiens, UniProt P37173).
Assay [7] addresses Ephrin type-A receptor 4 (Homo sapiens, UniProt P54764).
Assay [8] deals with T4, Serine/threonine-protein kinase TBK1 (Homo sapiens, UniProt Q9UHD2).
T4 sequence (Q9UHD2 whole entry): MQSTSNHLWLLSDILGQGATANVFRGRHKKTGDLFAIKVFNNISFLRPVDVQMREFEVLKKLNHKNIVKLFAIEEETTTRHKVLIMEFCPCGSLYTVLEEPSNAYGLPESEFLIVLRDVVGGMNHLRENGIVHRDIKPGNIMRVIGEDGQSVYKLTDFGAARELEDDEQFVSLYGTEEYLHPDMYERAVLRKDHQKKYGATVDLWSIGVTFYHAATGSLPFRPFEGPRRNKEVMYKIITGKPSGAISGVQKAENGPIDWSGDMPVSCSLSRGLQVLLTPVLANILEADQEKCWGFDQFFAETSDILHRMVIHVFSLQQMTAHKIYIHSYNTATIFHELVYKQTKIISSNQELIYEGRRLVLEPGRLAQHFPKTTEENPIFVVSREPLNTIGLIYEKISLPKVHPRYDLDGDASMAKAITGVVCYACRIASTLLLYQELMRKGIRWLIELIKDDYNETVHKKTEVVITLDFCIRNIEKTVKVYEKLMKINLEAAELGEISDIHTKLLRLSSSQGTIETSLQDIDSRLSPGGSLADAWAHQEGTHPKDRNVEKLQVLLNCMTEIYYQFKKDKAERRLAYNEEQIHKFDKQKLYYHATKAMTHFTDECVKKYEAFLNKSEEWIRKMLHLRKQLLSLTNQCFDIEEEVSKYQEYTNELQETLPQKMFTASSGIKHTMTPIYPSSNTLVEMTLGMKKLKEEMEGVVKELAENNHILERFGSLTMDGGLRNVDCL

In assay [9] the target is Ras-related protein Rab-6A (Homo sapiens, UniProt P20340).
Ras-related protein Rab-6A, sequence (P20340 whole entry): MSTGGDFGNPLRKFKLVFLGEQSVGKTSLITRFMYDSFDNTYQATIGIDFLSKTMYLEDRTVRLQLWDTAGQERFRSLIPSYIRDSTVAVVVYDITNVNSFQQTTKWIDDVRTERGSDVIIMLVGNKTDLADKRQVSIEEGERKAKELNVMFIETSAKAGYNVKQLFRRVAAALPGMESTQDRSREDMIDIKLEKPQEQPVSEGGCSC
Note: in the data inactive means no Kd found up to 30 µM.

TGF-beta receptor type-2, sequence (P37173 whole entry): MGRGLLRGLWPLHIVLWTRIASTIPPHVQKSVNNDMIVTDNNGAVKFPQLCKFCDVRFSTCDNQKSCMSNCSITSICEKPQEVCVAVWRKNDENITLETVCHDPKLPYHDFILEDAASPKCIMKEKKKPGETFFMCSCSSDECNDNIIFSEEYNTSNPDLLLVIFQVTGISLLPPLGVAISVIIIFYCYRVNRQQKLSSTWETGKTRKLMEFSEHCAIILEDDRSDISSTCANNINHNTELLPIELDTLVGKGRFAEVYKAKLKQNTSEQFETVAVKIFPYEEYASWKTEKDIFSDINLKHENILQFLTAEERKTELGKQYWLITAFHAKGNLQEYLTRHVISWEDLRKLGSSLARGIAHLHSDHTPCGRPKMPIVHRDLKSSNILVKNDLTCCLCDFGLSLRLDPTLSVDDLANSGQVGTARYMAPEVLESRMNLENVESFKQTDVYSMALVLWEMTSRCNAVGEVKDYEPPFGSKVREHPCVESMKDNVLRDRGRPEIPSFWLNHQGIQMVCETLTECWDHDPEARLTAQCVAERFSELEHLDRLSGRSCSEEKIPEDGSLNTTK
5'-AMP-activated protein kinase catalytic subunit alpha-1, sequence (Q13131 whole entry): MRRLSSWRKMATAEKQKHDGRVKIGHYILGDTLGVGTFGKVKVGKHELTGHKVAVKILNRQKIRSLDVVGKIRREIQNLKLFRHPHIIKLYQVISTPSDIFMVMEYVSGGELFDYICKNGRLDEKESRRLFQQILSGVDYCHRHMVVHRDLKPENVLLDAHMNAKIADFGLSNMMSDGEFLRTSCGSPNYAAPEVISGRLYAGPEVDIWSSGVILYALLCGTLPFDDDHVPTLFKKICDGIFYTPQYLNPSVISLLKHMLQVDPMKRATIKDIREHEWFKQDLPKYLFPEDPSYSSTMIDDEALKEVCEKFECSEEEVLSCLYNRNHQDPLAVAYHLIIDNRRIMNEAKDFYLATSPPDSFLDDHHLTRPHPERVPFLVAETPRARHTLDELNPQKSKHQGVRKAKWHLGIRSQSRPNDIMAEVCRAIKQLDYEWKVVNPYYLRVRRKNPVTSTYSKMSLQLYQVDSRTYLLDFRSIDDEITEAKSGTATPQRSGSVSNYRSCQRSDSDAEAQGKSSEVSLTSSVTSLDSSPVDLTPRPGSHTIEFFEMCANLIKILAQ
Ephrin type-A receptor 4, sequence (P54764 whole entry): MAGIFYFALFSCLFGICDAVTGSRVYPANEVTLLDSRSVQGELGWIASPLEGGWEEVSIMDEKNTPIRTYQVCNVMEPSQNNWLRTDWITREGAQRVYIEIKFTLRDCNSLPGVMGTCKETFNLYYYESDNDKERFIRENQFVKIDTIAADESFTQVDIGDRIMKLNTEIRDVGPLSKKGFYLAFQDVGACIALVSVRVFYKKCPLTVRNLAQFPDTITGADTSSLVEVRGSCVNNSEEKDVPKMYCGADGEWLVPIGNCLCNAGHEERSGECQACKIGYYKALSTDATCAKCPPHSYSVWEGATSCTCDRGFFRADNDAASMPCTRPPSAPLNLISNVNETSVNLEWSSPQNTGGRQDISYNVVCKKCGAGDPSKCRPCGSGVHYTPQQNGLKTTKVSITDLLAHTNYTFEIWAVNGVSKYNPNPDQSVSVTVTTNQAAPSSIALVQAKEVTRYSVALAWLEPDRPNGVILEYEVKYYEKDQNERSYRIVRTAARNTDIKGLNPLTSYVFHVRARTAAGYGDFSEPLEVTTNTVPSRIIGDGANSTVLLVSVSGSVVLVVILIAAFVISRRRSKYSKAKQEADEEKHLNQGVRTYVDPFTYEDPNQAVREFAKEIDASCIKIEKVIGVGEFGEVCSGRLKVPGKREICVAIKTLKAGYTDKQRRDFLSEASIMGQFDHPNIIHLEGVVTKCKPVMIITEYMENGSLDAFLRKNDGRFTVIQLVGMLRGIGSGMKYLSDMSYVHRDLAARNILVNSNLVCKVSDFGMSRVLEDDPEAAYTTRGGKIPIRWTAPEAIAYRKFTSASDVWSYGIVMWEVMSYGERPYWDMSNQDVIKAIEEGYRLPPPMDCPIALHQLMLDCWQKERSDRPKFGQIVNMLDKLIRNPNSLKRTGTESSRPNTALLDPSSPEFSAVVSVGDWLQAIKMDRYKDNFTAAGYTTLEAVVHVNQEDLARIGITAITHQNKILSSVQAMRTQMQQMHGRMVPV

With `CO[C@H]1C[C@@H]2CC[C@@H](C)[C@@](O)(O2)C(=O)C(=O)N2CCCC[C@H]2C(=O)O[C@H]([C@H](C)C[C@@H]2CC[C@@H](OCCO)[C@H](OC)C2)CC(=O)[C@H](C)/C=C(\C)[C@@H](O)[C@@H](OC)C(=O)[C@H](C)C[C@H](C)/C=C/C=C/C=C/1C` [EVEROLIMUS], the Kd in [1], in assay [2], in assay [3], in assay [4], in [5] and in [6] was > 30 µM (inactive) each time. Besides, the Kd in [7], in assay [8] and in assay [9] was > 30 µM (inactive) in each case.

As to `CCCS(=O)(=O)Nc1ccc(F)c(C(=O)c2c[nH]c3ncc(-c4ccc(Cl)cc4)cc23)c1F` [VEMURAFENIB], the Kd – broadly, the free concentration of one partner at which half of the binding sites on the other are occupied at equilibrium, for simple one-to-one binding – is > 30 µM (inactive) in [1]; > 30 µM (inactive) in assay [2]; > 30 µM (inactive) in assay [3]; > 30 µM (inactive) in assay [4]; > 30 µM (inactive) in [5]; 3.4 µM (active) in [6]. Besides, the Kd in assay [7], in assay [8] and in [9] was > 30 µM (inactive) in each case.

Consider `O=C(Nc1ccc(-c2ccnc(Nc3ccc(N4CCOCC4)cc3)n2)cc1)C1CCCN1` (stereo not drawn) [XL-019], for which the Kd in [1], in assay [2], in assay [3], in assay [4], in assay [5] and in assay [6] was > 30 µM (inactive) throughout. Also, the Kd in [7] was > 30 µM (inactive); in [8], 0.561 µM (active); in assay [9], > 30 µM (inactive).

In the case of `Cn1ncc(Cl)c1-c1cc(C(=O)N[C@H](CN)Cc2cccc(F)c2)sc1Cl` [AFURESERTIB], the Kd in assay [1], in assay [2], in [3], in assay [4], in assay [5] and in [6] was > 30 µM (inactive) in each case. The Kd in [7], in assay [8] and in [9] was > 30 µM (inactive) each time.

Turning to `CNC(=O)CN1CCC(Oc2cc3c(Nc4cccc(Cl)c4F)ncnc3cc2OC)CC1` [SAPITINIB], the Kd in assay [1], in assay [2], in assay [3], in assay [4], in assay [5] and in assay [6] was > 30 µM (inactive) throughout. Besides, the figures for the Kd in [7], in [8] and in [9] were 7.4 µM (active), > 30 µM (inactive) and > 30 µM (inactive), respectively.

For the compound `CC(=O)Nc1cccc(-n2c(=O)n(C3CC3)c(=O)c3c(Nc4ccc(I)cc4F)n(C)c(=O)c(C)c32)c1` [TRAMETINIB], the Kd in [1], in [2], in assay [3], in assay [4], in assay [5] and in [6] was > 30 µM (inactive) in each case. The Kd in [7], in assay [8] and in assay [9] was > 30 µM (inactive) in each case.

Take `COC(=O)N[C@@H](C)CNc1nccc(-c2cn(C(C)C)nc2-c2cc(Cl)cc(NS(C)(=O)=O)c2F)n1` [ENCORAFENIB]: the Kd in assay [1], in assay [2], in assay [3], in assay [4], in assay [5] and in assay [6] was > 30 µM (inactive) in each case. Also, the Kd in [7], in assay [8] and in [9] was > 30 µM (inactive) throughout.

On to `COC(=O)[C@@]1(O)C[C@H]2O[C@]1(C)n1c3ccccc3c3c4c(c5c6ccccc6n2c5c31)C(=O)NC4` [K-252A], for which the Kd was > 30 µM (inactive) in [1]; > 30 µM (inactive) in assay [2]; > 30 µM (inactive) in assay [3]; > 30 µM (inactive) in assay [4]; 0.461 µM (active) in [5]; > 30 µM (inactive) in assay [6]. Moreover, the Kd is > 30 µM (inactive) in [7], 1.16 µM (active) in assay [8] and > 30 µM (inactive) in assay [9].

As for `CCS(=O)(=O)N1CC(CC#N)(n2cc(-c3ncnc4[nH]ccc34)cn2)C1` [BARICITINIB], the Kd in assay [1], in [2], in [3], in assay [4], in assay [5] and in assay [6] was > 30 µM (inactive) in each case. Further, the Kd in assay [7], in assay [8] and in assay [9] was > 30 µM (inactive) each time.

Consider `CNS(=O)(=O)Nc1nccc(Cc2c(C)c3ccc(Oc4ncccn4)cc3oc2=O)c1F` [AVUTOMETINIB], for which the Kd in [1], in [2], in [3], in assay [4], in [5] and in assay [6] was > 30 µM (inactive) in each case. In addition, the Kd in assay [7], in assay [8] and in assay [9] was > 30 µM (inactive) each time.

With `COc1ccc(-c2ccc3c(N4CCOC[C@@H]4C)nc(N4CCOC[C@@H]4C)nc3n2)cc1CO` [AZD-8055], the Kd in assay [1], in [2], in [3], in assay [4], in assay [5] and in assay [6] was > 30 µM (inactive) each time. The Kd in assay [7], in assay [8] and in assay [9] was > 30 µM (inactive) throughout.

`O=C(O)[C@]1(Cc2cccc(Nc3nccs3)n2)CC[C@@H](Oc2cccc(Cl)c2F)CC1` [MK-5108]: the Kd in [1] is > 30 µM (inactive); in [2], 1.22 µM (active); in [3] it was 0.121 µM (active); in assay [4], > 30 µM (inactive); in [5] it was > 30 µM (inactive); in assay [6] it was > 30 µM (inactive). For the same compound, the Kd in assay [7], in assay [8] and in [9] was > 30 µM (inactive) each time.
